Assay results taken from ChEMBL document CHEMBL4418488, “Compounds and methods of treating ocular disorders” (2017).
Active and inactive are the calls of the source. The rule behind the calls is not given here.

Tests used:
Mus musculus [1] = test: Protective effect against intense light-induced retinal degeneration in 4 weeks old Abca4(-/-)/Rdh8 (-/-) mouse assessed as effect on thickness of outer nuclear layer at 1 mg dosed via gavage under dark for 24 hrs before exposure to 10000 lux bright light for 1 hr by SDOCT and ERG analysis; assay type: functional, organism-based
Mus musculus [2] = test: Protective effect against intense light-induced retinal degeneration in 4 weeks old Abca4(-/-)/Rdh8 (-/-) mouse assessed as 11-cis retinal levels at 1 mg dosed via gavage under dark for 24 hrs before exposure to 10000 lux bright light for 1 hr by HPLC analysis; assay type: functional
[3] = Toxicity in 4 weeks old Abca4(-/-)/Rdh8 (-/-) mouse model of intense light-induced retinal degeneration at 1 mg dosed via gavage under dark for 24 hrs before exposure to 10000 lux bright light for 1 hr by SDOCT and ERG analysis; assay type: organism-based; settings: in vivo, po
[4] = Drug metabolism in 4 weeks old Abca4(-/-)/Rdh8 (-/-) mouse model of intense light-induced retinal degeneration assessed as accumulation of intense amide peaks in liver at 1 mg dosed via gavage under dark for 24 hrs before exposure to 10000 lux bright light for 1 hr […]; assay type: ADME, organism-based; settings: in vivo, po
Mus musculus [5] = test: Protective effect against intense light-induced retinal degeneration in 4 weeks old Abca4(-/-)/Rdh8 (-/-) mouse at 0.1 mg dosed via gavage under dark for 24 hrs before exposure to 10000 lux bright light for 1 hr followed by exposure to dark for 3 days by ERG analysis; assay type: functional, organism-based
Mus musculus [6] = test: Protective effect against intense light-induced retinal degeneration in 4 weeks old Abca4(-/-)/Rdh8 (-/-) mouse at 0.5 mg dosed via gavage under dark for 24 hrs before exposure to 10000 lux bright light for 1 hr followed by exposure to dark for 3 days by ERG analysis; assay type: functional, organism-based
Mus musculus [7] = test: Protective effect against intense light-induced retinal degeneration in 4 weeks old Abca4(-/-)/Rdh8 (-/-) mouse at 0.1 mg dosed via gavage under dark for 24 hrs before exposure to 10000 lux bright light for 1 hr followed by exposure to dark for 3 days by OCT analysis; assay type: functional, organism-based
Mus musculus [8] = test: Protective effect against intense light-induced retinal degeneration in wild type mouse assessed as rate of visual chromophore recovery by measuring 11-cis- retinal level in eye at 0.2 mg pretreated with compound followed by exposure to light illumination 7 days after compound dosing (reference value: 85 +/- 5%) by HPLC analysis; assay type: functional, organism-based
Mus musculus [9] = test: Protective effect against intense light-induced retinal degeneration in 4 weeks old Abca4(-/-)/Rdh8 (-/-) mouse assessed as inhibition of rate of visual chromophore recovery by measuring 11-cis- retinal level in eye at 0.1 mg dosed via gavage under dark for 24 hrs before exposure to 10000 lux bright light for 1 hr by HPLC analysis relative to control; assay type: functional
Mus musculus [10] = test: Protective effect against intense light-induced retinal degeneration in 4 weeks old Abca4(-/-)/Rdh8 (-/-) mouse at 0.2 mg dosed via gavage under dark for 24 hrs before exposure to 10000 lux bright light for 1 hr followed by exposure to dark for 3 days by ERG analysis; assay type: functional, organism-based

Structure (SMILES)	Activity (Mus musculus [1])	Activity [3]	further results
CC(/C=C/C=C(/C=C/C1=CCCCC1)C(C)(C)C)=C\CN	Active	Toxic	Activity (Mus musculus [2]): 50%; Drug metabolism [4]: Metabolite_Detected
CC1=C(/C=C/C=C/C=C/C=C/CN)C(C)(C)CCC1	Active	Non-Toxic	
COc1ccc(C(=C\C=C\C(C)=C\CN)/C=C/C2=CCCCC2)cc1	inactive	Non-Toxic	
CC(/C=C/C1=CCCCC1)=C\C=C\C(C)=C\CN	inactive	Non-Toxic	
CC(/C=C/C=C(/c1ccc2ccccc2c1)C(C)(C)C)=C\CN	Active	Toxic	Activity (Mus musculus [2]): 50%; Drug metabolism [4]: Metabolite_Detected
CC(/C=C/C=C(/C=C/c1ccccc1)C(C)(C)C)=C\CN	Active	Toxic	Drug metabolism [4]: Metabolite_Detected
CC(/C=C/C=C(/C=C/c1ccc(C(F)(F)F)cc1)c1ccccc1)=C\CN	inactive	Toxic	
CC1=C(/C=C/C(=C/C=C/C(C)=C/CN)C(C)(C)C)CCCC1	inactive	Non-Toxic	
CC1=C(/C=C/C(C)=C/C=C/C(C)=C/CN)C(C)(C)CCC1	Active	Non-Toxic	Activity (Mus musculus [5]): inactive; Activity (Mus musculus [6]): Active; Activity (Mus musculus [7]): inactive; Activity (Mus musculus [8]): inactive; inhibition (INH) (Mus musculus [9]): 40%; Activity (Mus musculus [10]): Active
COc1ccc(C(=C\C=C\C(C)=C\CN)/C=C/c2ccc(O)cc2)cc1	inactive	Non-Toxic	
CC1=C(/C=C/C(=C/C=C/C(C)=C/CN)C(C)(C)C)C(C)(C)CCC1	inactive	Non-Toxic	
CC(C)(C)C(=C\C=C\CN)/C=C/C1=CCCCC1	inactive	Toxic	
